Data from patent US20230027026A1, “FUSED PYRIMIDINE COMPOUNDS, COMPOSITIONS AND MEDICINAL APPLICATIONS THEREOF” (JUBILANT BIOSYS LIMITED, priority 2019, published 2023).
Counter-ions that a name gives are not always drawn.

Experiments:
EGFR (T790M/L858R) = target: T1, EGFR (T790M/L858R) (Homo sapiens, UniProt P00533, L858R/T790M); experiment: EGFR L858R/T790M enzyme inhibition assay (HTRF); type: biochemical; settings: 5 μM ATP, 60 min, read-out: EGFR_L858R T790M_IC50_nM
T1 construct: GST; purchased Proqinase
Description: Example 2: EGFR L858R & Del19/T790M Assay Protocol (to Find the IC50 for the Compounds Using HTRF Method)
Reagents for Enzyme Assay:
• 1. Enzyme Assay Buffer: 60 mM HEPES (pH 7.4), 50 mM NaCl, 20 mM MgCl2, 5 mM MnCl2, filtered using 0.2 μm pore size, stored at 4° C. • Supplements (added fresh to the enzyme buffer): 1M DTT stock was made, 5% BSA stock and 0.1M Na3OV4 stored at 4° C. Enzyme assay buffer 50 mL, 1 M DTT 100 μL, 5% BSA 500 μL, 0.1 M Na3OV4 50 μL. • 2. GST-hEGFR (L858R), active: EGFR (T790M/L858R), active (Proqinase), 3.6 μM stock; 2.5 nM in final assay. • 3. Gastrin Precusor-Biotinylated: Gastrin precursor (Tyr87) biotinylated peptide, EEAY*GWM, Cell Signaling Tech 1310, Lot-7, Want final 0.5 μM in assay. • 4. ATP: 10 mM stock in 100 μL Enzyme assay buffer pH 7.4 prepared freshly, want 5 μM in final assay. • 5. Test compounds: Powders were dissolved in 100% DMSO and made up to a final stock concentration of 10 mM (volume in μL to add for 10 mM=mg powder X 10^5/MW). Final compound concentration in the assay plate started at 10 μM.
• 1. HTRF buffer: 50 mM Tris —HCl, pH-7.5, 100 mM NaCl, 0.1% BSA, 0.05% Tween20, 0.5 mM EDTA, filtered using 0.2 μm pore size, stored at 4° C. • Phycolink® Streptavidin-Allophycocyanin (SA-APC) Prozyme, Cat. #PJ25S, Lot #896 085, 2.06 mg/mL, APC concentration is 11.6 μM, streptavidin concentration is 15.5 μM. Want 12 nM final in assay (based on streptavidin concentration). • 2. (Europium) Eu-W1024 Anti-phosphotyrosine (PT-66) Antibody: Perkin Elmer (Product Number: AD0068), monoclonal IgG1 that recognizes phosphotyrosine peptide 100 μg/ml stock. Want 0.1 nM final in assay.
• 1. The compound dilution was made by TECAN as per the above scheme. • 2. 16 μL of diluted compound was added to the assay plate by using TECAN. • 3. 10 μL of enzyme mix was added to each well except mins. • 4. 20 μL of substrate and ATP mix were added into each well of the assay plate, manually. • 5. The plate was incubated on a laboratory shaker at room temperature for 60 min. • 6. Meanwhile, the HTRF mix was prepared and 75 μL was added to the HTRF plate. • 7. When the incubation was over, 10 μL of the reaction mixture was transferred to the HTRF assay plate and incubated on a laboratory shaker for 30 min at room temperature. • 8. The reading was taken in Pherastar (ext 337 nm, Em 665 & 620 nm). • 9. The results were analyzed using Graphpad prism after calculation of the z factor, signal window and % inhibition to get the IC50.

A431 cells = experiment: Cellular proliferation (Alamar Blue) assay, A431; type: cell-based; settings: Homo sapiens, A-431; A431 cells, 72 hr, Alamar Blue; read-out: A431 IC50
Description: (§1) Example 3: Cellular Proliferation (Alamar Blue) Assays
(§2) • 1. EGFR(D770_N771insSVD) expressing Ba/F3 stable cell line • 2. EGFR (A767_dupASV) expressing Ba/F3 stable cell line • 3. A431 cells • 4. BTER2 (A775_G776insYVMA) expressing Ba/F3 stable cell line • 5. BTER2 (WT) expressing Ba/F3 stable cell line • 6. BT-474 cells
(§3) • 1. Seed cells at 5000 for A431 and 15,000 cells for Ba/F3 in 100 μL/well in complete media (for A431: DMEM with 10% FBS and for Ba/F3 cells: RPMI with 10% FBS) in 96-well tissue culture plate. Leave outer wells without cells for background measurements. Incubate at 37 degree Celsius in 5% CO2 humidified incubator for 16-18 hours. • 2. Add 0.025 ml of 5× concentration compound dilution or DMSO control. Final compound concentration range is 10-0.0005 μM prepared in 3-fold serial dilutions. Incubate for 72 hr at 37 degree Celsius in […] humidified incubator. • 3. Add 0.0125 mL Alamar Blue™ reagent to each well with multi-channel pipette and tap gently on each side of the plate to mix. Incubate for 3 hours at 37 degree Celsius in […] humidified incubator. • 4. Read plates on fluorescence reader (Tecan Spark Control, Device: Spark, Serial #: 1801006040) at 540 nm excitation, 590 nm emission wavelength. • 5. Data analysis was performed using XLfit 5.5.0.5.

[1] = target: EGFR (A767_dupASV) expressing Ba/F3 stable cell line (Homo sapiens, UniProt P00533, DUP767-769, cells depend on it); experiment: Cellular proliferation (Alamar Blue) assay, EGFR A767_dupASV Ba/F3; type: cell-based; settings: EGFR A767_dupASV Ba/F3, 72 hr, read-out: A767 IC50
Description: as §1, §2, §3

[2] = target: EGFR(D770_N771insSVD) expressing Ba/F3 stable cell line (Homo sapiens, UniProt P00533, DUP768-770, cells depend on it); experiment: Cellular proliferation (Alamar Blue) assay, EGFR D770_N771insSVD Ba/F3; type: cell-based; settings: EGFR D770_N771insSVD Ba/F3, 72 hr, read-out: D770 IC50
Description: as §1, §2, §3

EGFR(D770_N771insSVD) expressing Ba/F3 stable cell line, sequence (P00533 with tags, fused parts or gaps DUP768-770): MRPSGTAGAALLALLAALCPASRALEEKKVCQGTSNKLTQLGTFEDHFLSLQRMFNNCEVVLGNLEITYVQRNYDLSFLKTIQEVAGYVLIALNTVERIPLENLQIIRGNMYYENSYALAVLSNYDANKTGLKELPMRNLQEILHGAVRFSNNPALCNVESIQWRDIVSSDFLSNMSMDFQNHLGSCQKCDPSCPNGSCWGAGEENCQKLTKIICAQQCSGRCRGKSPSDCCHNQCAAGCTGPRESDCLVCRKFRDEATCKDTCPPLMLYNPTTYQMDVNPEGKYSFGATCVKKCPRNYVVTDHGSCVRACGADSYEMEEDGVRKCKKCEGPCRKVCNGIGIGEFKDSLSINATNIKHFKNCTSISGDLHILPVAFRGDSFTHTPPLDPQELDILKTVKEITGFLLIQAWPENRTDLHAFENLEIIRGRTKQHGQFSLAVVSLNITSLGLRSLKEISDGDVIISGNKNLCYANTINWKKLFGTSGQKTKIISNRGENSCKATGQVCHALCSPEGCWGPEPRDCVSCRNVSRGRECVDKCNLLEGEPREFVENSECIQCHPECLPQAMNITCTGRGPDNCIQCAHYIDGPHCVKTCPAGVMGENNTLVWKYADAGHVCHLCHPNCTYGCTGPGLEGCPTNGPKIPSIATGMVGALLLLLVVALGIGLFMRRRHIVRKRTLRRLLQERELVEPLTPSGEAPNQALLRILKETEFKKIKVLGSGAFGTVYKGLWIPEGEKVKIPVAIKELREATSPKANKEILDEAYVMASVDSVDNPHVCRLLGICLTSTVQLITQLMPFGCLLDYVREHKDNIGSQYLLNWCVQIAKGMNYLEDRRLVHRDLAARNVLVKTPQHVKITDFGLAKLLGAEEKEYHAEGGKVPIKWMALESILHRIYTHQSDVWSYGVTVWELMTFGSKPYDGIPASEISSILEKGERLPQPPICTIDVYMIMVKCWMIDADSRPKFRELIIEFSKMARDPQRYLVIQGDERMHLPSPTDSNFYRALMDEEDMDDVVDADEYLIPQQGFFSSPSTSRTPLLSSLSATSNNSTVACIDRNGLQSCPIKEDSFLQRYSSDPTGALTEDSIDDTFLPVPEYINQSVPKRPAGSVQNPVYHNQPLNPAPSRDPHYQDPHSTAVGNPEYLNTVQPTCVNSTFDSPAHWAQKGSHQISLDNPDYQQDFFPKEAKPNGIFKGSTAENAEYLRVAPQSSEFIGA
EGFR (A767_dupASV) expressing Ba/F3 stable cell line, sequence (P00533 with tags, fused parts or gaps DUP767-769): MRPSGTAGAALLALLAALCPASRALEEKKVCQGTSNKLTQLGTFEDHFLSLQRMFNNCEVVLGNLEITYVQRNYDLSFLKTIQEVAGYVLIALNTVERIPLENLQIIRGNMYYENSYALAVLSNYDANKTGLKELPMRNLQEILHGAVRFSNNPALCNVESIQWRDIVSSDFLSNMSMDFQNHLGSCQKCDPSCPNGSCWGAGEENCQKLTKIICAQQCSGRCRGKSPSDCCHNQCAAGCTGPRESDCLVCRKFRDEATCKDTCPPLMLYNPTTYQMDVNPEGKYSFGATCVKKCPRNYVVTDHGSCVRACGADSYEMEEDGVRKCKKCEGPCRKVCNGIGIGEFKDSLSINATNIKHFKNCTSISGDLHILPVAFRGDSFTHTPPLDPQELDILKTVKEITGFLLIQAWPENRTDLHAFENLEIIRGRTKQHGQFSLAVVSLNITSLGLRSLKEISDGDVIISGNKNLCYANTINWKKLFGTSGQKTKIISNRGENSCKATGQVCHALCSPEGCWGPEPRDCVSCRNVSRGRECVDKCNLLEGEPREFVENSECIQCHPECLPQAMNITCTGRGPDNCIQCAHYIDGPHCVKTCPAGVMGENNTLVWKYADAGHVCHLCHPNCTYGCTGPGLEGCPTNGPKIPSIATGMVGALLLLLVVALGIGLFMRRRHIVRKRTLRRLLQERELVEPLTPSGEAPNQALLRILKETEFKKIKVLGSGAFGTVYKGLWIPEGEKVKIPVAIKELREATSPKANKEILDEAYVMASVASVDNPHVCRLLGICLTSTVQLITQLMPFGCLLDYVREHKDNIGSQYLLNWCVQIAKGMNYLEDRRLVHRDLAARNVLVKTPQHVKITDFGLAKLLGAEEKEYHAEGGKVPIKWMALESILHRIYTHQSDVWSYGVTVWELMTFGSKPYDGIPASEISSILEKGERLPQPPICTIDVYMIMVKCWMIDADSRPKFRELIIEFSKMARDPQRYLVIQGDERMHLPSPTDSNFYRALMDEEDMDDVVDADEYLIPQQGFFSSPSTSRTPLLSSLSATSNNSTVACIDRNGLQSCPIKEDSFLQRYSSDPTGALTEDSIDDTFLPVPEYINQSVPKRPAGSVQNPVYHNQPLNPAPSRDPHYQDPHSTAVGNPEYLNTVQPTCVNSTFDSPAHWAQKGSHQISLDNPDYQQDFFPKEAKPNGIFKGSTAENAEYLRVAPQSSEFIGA
T1 sequence (P00533 25-1210 T790M/L858R): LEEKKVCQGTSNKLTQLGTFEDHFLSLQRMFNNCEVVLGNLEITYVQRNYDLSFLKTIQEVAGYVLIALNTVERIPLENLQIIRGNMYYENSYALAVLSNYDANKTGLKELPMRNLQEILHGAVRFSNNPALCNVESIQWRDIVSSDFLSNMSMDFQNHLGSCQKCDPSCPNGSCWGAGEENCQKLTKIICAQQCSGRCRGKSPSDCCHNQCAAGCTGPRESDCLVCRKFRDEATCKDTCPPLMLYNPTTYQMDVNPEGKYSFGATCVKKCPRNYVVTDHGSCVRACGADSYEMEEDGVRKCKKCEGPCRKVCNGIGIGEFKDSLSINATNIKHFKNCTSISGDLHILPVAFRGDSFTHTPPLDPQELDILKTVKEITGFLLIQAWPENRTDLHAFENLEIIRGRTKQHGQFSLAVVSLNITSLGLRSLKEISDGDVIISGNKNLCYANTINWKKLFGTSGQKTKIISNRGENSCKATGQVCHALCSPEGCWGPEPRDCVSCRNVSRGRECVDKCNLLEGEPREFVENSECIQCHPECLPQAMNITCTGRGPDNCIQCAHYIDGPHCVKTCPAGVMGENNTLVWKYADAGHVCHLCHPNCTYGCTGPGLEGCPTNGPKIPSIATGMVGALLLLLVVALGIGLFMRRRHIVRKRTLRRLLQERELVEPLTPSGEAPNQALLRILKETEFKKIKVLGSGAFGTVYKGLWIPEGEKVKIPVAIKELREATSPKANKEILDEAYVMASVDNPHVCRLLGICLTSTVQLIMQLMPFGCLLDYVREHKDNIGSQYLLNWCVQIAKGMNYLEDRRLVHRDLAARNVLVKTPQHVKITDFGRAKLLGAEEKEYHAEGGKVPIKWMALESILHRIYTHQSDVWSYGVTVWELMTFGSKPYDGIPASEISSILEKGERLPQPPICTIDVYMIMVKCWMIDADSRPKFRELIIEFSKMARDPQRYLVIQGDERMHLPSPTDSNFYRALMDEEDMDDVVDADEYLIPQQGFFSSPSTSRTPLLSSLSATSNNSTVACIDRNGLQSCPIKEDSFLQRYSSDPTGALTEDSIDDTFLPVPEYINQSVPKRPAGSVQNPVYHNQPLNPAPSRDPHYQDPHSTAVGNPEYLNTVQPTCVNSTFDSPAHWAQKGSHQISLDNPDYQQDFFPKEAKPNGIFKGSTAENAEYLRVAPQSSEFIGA

Structure (SMILES) | IC50 (EGFR (T790M/L858R)) | IC50 (A431 cells) | GI50 [1] | GI50 [2]
C=CC(=O)N1CC[C@@H](N2C(=O)N(Cc3ccccc3)Cc3cnc(Nc4cn(C)nc4Cl)nc32)C1 (single isomer, unassigned) [Compound 38] | 446 nM | 7490 nM | ≥ 10000 nM | ≥ 10000 nM
CN(C)C/C=C/C(=O)NC1CCCC(N2C(=O)N(Cc3ccccc3)Cc3cnc(Nc4cn(C)nc4Cl)nc32)C1 (stereo not drawn) [Compound 33, (E)-N-(3-(3-benzyl-7-((3-chloro-1-methyl-1H-pyrazol-4-yl)amino)-2-oxo-3,4-dihydropyrimido[4,5-d]pyrimidin-1(2H)-yl)cyclohexyl)-4-(dimethylamino)but-2-enamide] | 869 nM | ≥ 10000 nM | 4080 nM | 3880 nM
CN(C)C/C=C/C(=O)N1CCC(N2C(=O)N(Cc3ccccc3)Cc3cnc(Nc4cn(C)nc4Cl)nc32)C1 (stereo not drawn) [Compound 34, (E)-3-benzyl-7-((3-chloro-1-methyl-1H-pyrazol-4-yl)amino)-1-(1-(4-(dimethylamino)but-2-enoyl)pyrrolidin-3-yl)-3,4-dihydropyrimido[4,5-d]pyrimidin-2(1H)-one] | 6570 nM | – | – | –
C=CC(=O)NC1CCCC(N2C(=O)N(c3ccc(F)cc3)Cc3cnc(Nc4cn(C)nc4Cl)nc32)C1 (stereo not drawn) [Compound 36, N-(3-(7-((3-chloro-1-methyl-1H-pyrazol-4-yl)amino)-3-(4-fluorophenyl)-2-oxo-3,4-dihydropyrimido[4,5-d]pyrimidin-1(2H)-yl)cyclohexyl)acrylamide] | 2.97 nM | ≥ 10000 nM | 3920 nM | ≥ 10000 nM
C=CC(=O)N1CC[C@H](N2C(=O)N(c3ccccc3)Cc3cnc(Nc4cn(C)nc4Cl)nc32)C1 [Compound 41, (S)-1-(1-acryloylpyrrolidin-3-yl)-7-((3-chloro-1-methyl-1H-pyrazol-4-yl)amino)-3-phenyl-3,4-dihydropyrimido[4,5-d]pyrimidin-2(1H)-one] | 580 nM | ≥ 10000 nM | 504 nM | 759 nM
CN(C)C/C=C/C(=O)N1CC[C@H](N2C(=O)N(c3ccccc3)Cc3cnc(Nc4cn(C)nc4Cl)nc32)C1 [Compound 42, (S,E)-7-((3-chloro-1-methyl-1H-pyrazol-4-yl)amino)-1-(1-(4-(dimethylamino)but-2-enoyl)pyrrolidin-3-yl)-3-phenyl-3,4-dihydropyrimido[4,5-d]pyrimidin-2(1H)-one] | ≥ 10000 nM | ≥ 10000 nM | ≥ 10000 nM | ≥ 10000 nM
CN(C)C/C=C/C(=O)Nc1cccc(N2C(=O)N(Cc3ccccc3)Cc3cnc(Nc4cn(CC(F)F)nc4Cl)nc32)c1 [Compound 101, (E)-N-(3-(3-benzyl-7-((3-chloro-1-(2,2-difluoroethyl)-1H-pyrazol-4-yl)amino)-2-oxo-3,4-dihydropyrimido[4,5-d]pyrimidin-1(2H)-yl)phenyl)-4-(dimethylamino)but-2-enamide] | – | ≥ 10000 nM | 100 nM | 176 nM
CN(C)C/C=C/C(=O)Nc1cccc(N2C(=O)N(Cc3ccccc3)Cc3cnc(Nc4ccc5c(c4)ncn5C)nc32)c1 [Compound 102, (E)-N-(3-(3-benzyl-7-((1-methyl-1H-benzo[d]imidazol-5-yl)amino)-2-oxo-3,4-dihydropyrimido[4,5-d]pyrimidin-1(2H)-yl)phenyl)-4-(dimethylamino)but-2-enamide] | – | ≥ 10000 nM | 694 nM | 929 nM
COc1ncccc1Nc1ncc2c(n1)N(c1cccc(NC(=O)/C=C/CN(C)C)c1)C(=O)N(Cc1ccccc1)C2 [Compound 103, (E)-N-(3-(3-benzyl-7-((2-methoxypyridin-3-yl)amino)-2-oxo-3,4-dihydropyrimido[4,5-d]pyrimidin-1(2H)-yl)phenyl)-4-(dimethylamino)but-2-enamide trifluoroacetate salt] | – | ≥ 10000 nM | 269 nM | 224 nM
CN(C)C/C=C/C(=O)N(C)c1cccc(N2C(=O)N(c3ccccc3)Cc3cnc(Nc4cn(C)nc4Cl)nc32)c1 [Compound 104, (E)-N-(3-(7-((3-chloro-1-methyl-1H-pyrazol-4-yl)amino)-2-oxo-3-phenyl-3,4-dihydropyrimido[4,5-d]pyrimidin-1(2H)-yl)phenyl)-4-(dimethylamino)-N-methylbut-2-enamide] | – | ≥ 10000 nM | 255 nM | 885 nM
C=CC(=O)Nc1cccc(N2C(=O)N(c3ccccc3)Cc3cnc(Nc4cn(C5CCN(C)CC5)nc4Cl)nc32)c1 [Compound 105, N-(3-(7-((3-chloro-1-(1-methylpiperidin-4-yl)-1H-pyrazol-4-yl)amino)-2-oxo-3-phenyl-3,4-dihydropyrimido[4,5-d]pyrimidin-1(2H)-yl)phenyl)acrylamide] | – | 3600 nM | 12 nM | 14 nM
CN1CCN(C/C=C/C(=O)Nc2cccc(N3C(=O)N(c4ccccc4)Cc4cnc(Nc5cn(C)nc5Cl)nc43)c2)CC1 [Compound 126, (E)-N-(3-(7-((3-chloro-1-methyl-1H-pyrazol-4-yl)amino)-2-oxo-3-phenyl-3,4-dihydropyrimido[4,5-d]pyrimidin-1(2H)-yl)phenyl)-4-(4-methylpiperazin-1-yl)but-2-enamide] | – | ≥ 10000 nM | 1090 nM | 2290 nM
C=C(OC)C(=O)Nc1cccc(N2C(=O)N(c3ccccc3)Cc3cnc(Nc4cn(C)nc4Cl)nc32)c1 [Compound 127, N-(3-(7-((3-chloro-1-methyl-1H-pyrazol-4-yl)amino)-2-oxo-3-phenyl-3,4-dihydropyrimido[4,5-d]pyrimidin-1(2H)-yl)phenyl)-2-methoxyacrylamide] | – | 8170 nM | ≥ 10000 nM | ≥ 10000 nM
C=CC(=O)Nc1ccccc1N1C(=O)N(c2ccccc2)Cc2cnc(Nc3cn(C)nc3Cl)nc21 [Compound 130, N-(2-(7-((3-chloro-1-methyl-1H-pyrazol-4-yl)amino)-2-oxo-3-phenyl-3,4-dihydropyrimido[4,5-d]pyrimidin-1(2H)-yl)phenyl)acrylamide] | – | ≥ 10000 nM | ≥ 10000 nM | 9260 nM
C=CC(=O)Nc1cccc(N2C(=O)N(c3ccccc3)Cc3cnc(Nc4cn(C5CCNCC5)nc4Cl)nc32)c1 [Compound 132, N-[3-(7-{[3-chloro-1-(piperidin-4-yl)-1H-pyrazol-4-yl]amino}-2-oxo-3-phenyl-1H,2H,3H,4H-pyrimido[4,5-d][1,3]diazin-1-yl)phenyl]prop-2-enamide] | – | ≥ 10000 nM | 960 nM | 973 nM
